Results as given in PubChem BioAssay (NCI).
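Following 48 hours of exposure in 96-well plates, responses at five concentrations were used to interpolate endpoints linearly. GI50: concentration for 50% inhibition of growth. At the TGI there is no net growth.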

Assays:
Test in all cases: NCI anticancer screen, dose series, 48 h
[1] = system: MDA-MB-231 breast
[2] = system: SK-MEL-5 melanoma
[3] = system: K-562 leukemia
[4] = system: NCI-H23 lung
[5] = system: RXF 393 renal
[6] = system: UO-31 renal
[7] = system: HOP-92 NSCLC
[8] = system: MDA-MB-435
[9] = system: SF-539 CNS
[10] = system: OVCAR-5 ovarian
[11] = system: NCI/ADR-RES ovarian
[12] = system: UACC-62 melanoma
[13] = system: CCRF-CEM leukemia
[14] = system: HCC-2998 colon
[15] = system: HCT-116 colon
[16] = system: SN12C renal
[17] = system: HOP-62 NSCLC
[18] = system: MALME-3M melanoma
[19] = system: CAKI-1 renal
[20] = system: RPMI-8226 leukemia
[21] = system: SW-620 colon
[22] = system: NCI-H522 lung
[23] = system: M14 melanoma
[24] = system: A498 renal
[25] = system: NCI-H460 lung
[26] = system: A549 NSCLC
[27] = system: ACHN renal
[28] = system: MCF7 breast
[29] = system: HT29 colon
[30] = system: SK-OV-3 ovarian
[31] = system: EKVX NSCLC
[32] = system: BT-549 breast
[33] = system: DU-145 prostate
[34] = system: SF-295 CNS
[35] = system: LOX IMVI melanoma
[36] = system: SK-MEL-28 melanoma
[37] = system: T-47D breast
[38] = system: SNB-19 CNS
[39] = system: HCT-15 colon
[40] = system: UACC-257 melanoma
[41] = system: KM12 colon
[42] = system: SF-268 CNS
[43] = system: COLO 205 colon
[44] = system: NCI-H226 lung
[45] = system: 786-0 renal
[46] = system: HL-60(TB) leukemia
[47] = system: SK-MEL-2 melanoma
[48] = system: OVCAR-3 ovarian
[49] = system: HS 578T breast
[50] = system: PC-3 prostate
[51] = system: TK-10 renal
[52] = system: IGROV1 ovarian
[53] = system: SR leukemia
[54] = system: SNB-75 CNS
[55] = system: OVCAR-4 ovarian
[56] = system: U251 CNS

CCNCCNc1cc(-c2ccc(Cl)cc2)c(C#N)c2nc3ccccc3n12
GI50 [1]: 1920 nM
TGI [1]: 3580 nM
GI50 [2]: 1700 nM
TGI [2]: 3110 nM
GI50 [3]: 1290 nM
TGI [3]: 3060 nM
GI50 [4]: 1850 nM
TGI [4]: 3910 nM
GI50 [5]: 1440 nM
TGI [5]: 2780 nM
GI50 [6]: 1490 nM
TGI [6]: 2940 nM
GI50 [7]: 1700 nM
TGI [7]: 3200 nM
GI50 [8]: 1580 nM
TGI [8]: 2950 nM
GI50 [9]: 1720 nM
TGI [9]: 3220 nM
GI50 [10]: 1910 nM
TGI [10]: 3670 nM
GI50 [11]: 1850 nM
TGI [11]: 3910 nM
GI50 [12]: 1850 nM
TGI [12]: 3650 nM
GI50 [13]: 490 nM
TGI [13]: 2410 nM
GI50 [14]: 1840 nM
TGI [14]: 3400 nM
GI50 [15]: 1270 nM
TGI [15]: 2590 nM
GI50 [16]: 1890 nM
TGI [16]: 3850 nM
GI50 [17]: 2370 nM
TGI [17]: 5400 nM
GI50 [18]: 1690 nM
TGI [18]: 3380 nM
GI50 [19]: 1630 nM
TGI [19]: 3280 nM
GI50 [20]: 2300 nM
TGI [20]: 4920 nM
GI50 [21]: 1520 nM
TGI [21]: 3140 nM
GI50 [22]: 2000 nM
TGI [22]: 3840 nM
GI50 [23]: 1880 nM
TGI [23]: 3380 nM
GI50 [24]: 2010 nM
TGI [24]: 3520 nM
GI50 [25]: 1790 nM
TGI [25]: 3370 nM
GI50 [26]: 1920 nM
TGI [26]: 3620 nM
GI50 [27]: 1480 nM
TGI [27]: 2890 nM
GI50 [28]: 1370 nM
TGI [28]: 3050 nM
GI50 [29]: 1790 nM
TGI [29]: 3470 nM
GI50 [30]: 1850 nM
TGI [30]: 3470 nM
GI50 [31]: 1600 nM
TGI [31]: 3310 nM
GI50 [32]: 1750 nM
TGI [32]: 3340 nM
GI50 [33]: 1710 nM
TGI [33]: 3090 nM
GI50 [34]: 1720 nM
TGI [34]: 3310 nM
GI50 [35]: 1520 nM
TGI [35]: 2930 nM
GI50 [36]: 1800 nM
TGI [36]: 3340 nM
GI50 [37]: 1740 nM
TGI [37]: 3860 nM
GI50 [38]: 1840 nM
TGI [38]: 3640 nM
GI50 [39]: 1250 nM
TGI [39]: 2640 nM
GI50 [40]: 2180 nM
TGI [40]: 3920 nM
GI50 [41]: 1730 nM
TGI [41]: 3240 nM
GI50 [42]: 1540 nM
TGI [42]: 3000 nM
GI50 [43]: 1460 nM
TGI [43]: 3270 nM
GI50 [44]: 1790 nM
TGI [44]: 4310 nM
GI50 [45]: 1490 nM
TGI [45]: 2870 nM
GI50 [46]: 1650 nM
TGI [46]: 3650 nM
GI50 [47]: 2060 nM
TGI [47]: 3890 nM
GI50 [48]: 1450 nM
TGI [48]: 2850 nM
GI50 [49]: 2200 nM
TGI [49]: 4680 nM
GI50 [50]: 1860 nM
TGI [50]: 3390 nM
GI50 [51]: 2040 nM
TGI [51]: 3620 nM
GI50 [52]: 1680 nM
TGI [52]: 3370 nM
GI50 [53]: 282 nM
TGI [53]: 690 nM
GI50 [54]: 1330 nM
TGI [54]: 2670 nM
GI50 [55]: 1640 nM
TGI [55]: 4090 nM
GI50 [56]: 1700 nM
TGI [56]: 3270 nM
